# Read-outs that look alike come from different tables or passages of the source.
# Key:
# [1] = biological target: T1, NK-1 (Homo sapiens, UniProt P25103); assay: NK1 radioligand binding assay; conditions: U373 membrane preparation, [125I]Substance P
# T1 construct: 30 ul/well of a 2×U373 membrane preparation; endogenous in cells; host or cells: U373 cells (crude membrane preparation)
# Description: (§1) NK-1 Binding assay. Crude membrane suspensions were prepared for the NK1 and SERT radioligand binding assays from U373 cells or recombinant HEK-293 cells expressing hSERT, respectively. Cells were harvested from T-175 flasks as follows. The medium is removed from the flasks and the cells rinsed with HBSS without Ca and without Mg. The cells are then incubated for 5-10 minutes in 10 mM Tris-Cl, pH 7.5, 5 mM EDTA before the cells are lifted with a combination of pipetting and scraping, as needed. To prepare membranes, the cell suspension is collected into centrifuge bottles and homogenized for 30 seconds with a Polytron homogenizer. The suspension is centrifuged for 30 min @ 32,000×g, 4° C., then the supernatant is decanted and the pellet resuspended and homogenized in 50 mM Tris-Cl, pH 7.5, 1 mM EDTA for 10 seconds. The suspension is then centrifuged again for 30 min @ 32,000×g, 4° C. The supernatant is decanted and the pellet resuspended in 50 mM Tris-Cl, pH 7.5, 1 mM EDTA and briefly homogenized. A Bradford assay (Bio-rad) is performed and the membrane preparation diluted to 2 mg/ml with 50 mM Tris-Cl, pH 7.5, 1 mM EDTA. Aliquots are prepared, and then frozen and stored at −80° C.
# NK1 radioligand binding assay. Compounds are dissolved in 100% DMSO at a concentration 100× the desired highest assay concentration, serially diluted 1:3 in 100% DMSO, and 0.6 ul/well of each solution is dispensed to a Nunc polypropylene, round bottom, 384 well plate. 100% inhibition is defined with 0.6 ul/well of 1 mM L-733,060 (Sigma L-137) dissolved in DMSO. 30 ul/well of a 2×U373 membrane preparation (267 ug/ml in 100 mM Tris-Cl, pH 7.5, 6 mM MgCl2, 0.2% (v/v) Sigma mammalian protease inhibitor cocktail (Sigma P-8340), and 4 ug/ml chymostatin, Sigma C-7268) and 30 ul/well of a 2× radioligand solution (400 pM [^125I]Substance P (Perkin Elmer NEX-190) in 1% (w/v) BSA (Sigma A-2153), 0.1 mg/ml bacitracin, Sigma B-0125) are added to the well and the reaction incubated for 1 hour at room temperature. The contents of the assay plate are then transferred to a Millipore MultiscreenHTS GF/B filter plate which has been pretreated with 0.5% PEI for at least one hour. The plate is vacuum filtered and washed with 7 washes of 100 ul/well of 20 mM Tris-Cl, pH 7.5, 0.5% (w/v) BSA chilled to 4° C. The filtration and washing is completed in less than 90 s. The plates are air-dried overnight, 12 ul/well of MicroScint scintillation fluid added, and the plates counted in a Trilux.
# (§2) Data analysis. The raw data are normalized to percent inhibition using control wells defining 0% (DMSO only) and 100% (selective inhibitor) inhibition which are run on each plate. Each plate is run in triplicate, and the concentration response curve thus generated is fit using the four-parameter dose response equation, Y=Bottom+(Top-Bottom)/(1+10̂((LogIC50−X)*HillSlope)) in order to determine the IC50 value for each compound. The radioligand concentration chosen for each assay corresponds to the Kd concentration determined through saturation binding analysis for each assay.
# [2] = biological target: T2, hSERT (Homo sapiens, UniProt P31645); assay: SERT radioligand binding assay; conditions: HEK-hSERT membrane preparation, [125I]RTI-55, read-out: SERT IC50
# T2 construct: expressed in transfected cells; host or cells: HEK-293 cells (crude membrane preparation)
# Description: as §1
# SERT radioligand binding assay. Compounds are dissolved in 100% DMSO at a concentration 100× the desired highest assay concentration, serially diluted 1:3 in 100% DMSO, and 0.4 ul/well of each solution is dispensed to a Nunc polypropylene, round bottom, 384 well plate. 100% inhibition is defined with 0.4 ul/well of 1 mM fluoxetine (Sigma F-132) dissolved in DMSO. 20 ul/well of a 2×HEK-hSERT membrane preparation (15 ug/ml in 50 mM Tris-Cl, pH 7.5, 120 mM NaCl, 5 mM KCl) and 20 ul/well of a 2× radioligand solution (520 pM [^125I]RTI-55 (Perkin-Elmer NEX-272) in 50 mM Tris-Cl, pH 7.5, 120 mM NaCl, 5 mM KCl) are added to each well and the reaction incubated for 1 hour at room temperature. The contents of the assay plate are then transferred to a Millipore MultiscreenHTS GF/B filter plate which has been pretreated with 0.5% PEI for at least one hour. The plate is vacuum filtered and washed with 7 washes of 100 ul/well of 50 mM Tris-Cl, pH 7.5, 120 mM NaCl, 5 mM KCl chilled to 4° C. The filtration and washing is completed in less than 90 s. The plates are air-dried overnight, 12 ul/well of MicroScint scintillation fluid added, and the plates counted in a Trilux.
# as §2
# T1 sequence (P25103 whole entry): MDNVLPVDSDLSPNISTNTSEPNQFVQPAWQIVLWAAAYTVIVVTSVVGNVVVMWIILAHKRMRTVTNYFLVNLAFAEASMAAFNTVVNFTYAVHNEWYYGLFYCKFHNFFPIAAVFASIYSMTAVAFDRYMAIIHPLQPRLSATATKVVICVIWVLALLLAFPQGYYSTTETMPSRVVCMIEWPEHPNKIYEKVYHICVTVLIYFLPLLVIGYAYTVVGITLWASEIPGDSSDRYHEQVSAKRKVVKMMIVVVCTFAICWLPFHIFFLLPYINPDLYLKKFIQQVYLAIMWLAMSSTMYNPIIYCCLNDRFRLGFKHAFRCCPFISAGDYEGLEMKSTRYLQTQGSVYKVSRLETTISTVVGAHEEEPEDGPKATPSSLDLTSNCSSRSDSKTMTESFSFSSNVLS
# T2 sequence (P31645 whole entry): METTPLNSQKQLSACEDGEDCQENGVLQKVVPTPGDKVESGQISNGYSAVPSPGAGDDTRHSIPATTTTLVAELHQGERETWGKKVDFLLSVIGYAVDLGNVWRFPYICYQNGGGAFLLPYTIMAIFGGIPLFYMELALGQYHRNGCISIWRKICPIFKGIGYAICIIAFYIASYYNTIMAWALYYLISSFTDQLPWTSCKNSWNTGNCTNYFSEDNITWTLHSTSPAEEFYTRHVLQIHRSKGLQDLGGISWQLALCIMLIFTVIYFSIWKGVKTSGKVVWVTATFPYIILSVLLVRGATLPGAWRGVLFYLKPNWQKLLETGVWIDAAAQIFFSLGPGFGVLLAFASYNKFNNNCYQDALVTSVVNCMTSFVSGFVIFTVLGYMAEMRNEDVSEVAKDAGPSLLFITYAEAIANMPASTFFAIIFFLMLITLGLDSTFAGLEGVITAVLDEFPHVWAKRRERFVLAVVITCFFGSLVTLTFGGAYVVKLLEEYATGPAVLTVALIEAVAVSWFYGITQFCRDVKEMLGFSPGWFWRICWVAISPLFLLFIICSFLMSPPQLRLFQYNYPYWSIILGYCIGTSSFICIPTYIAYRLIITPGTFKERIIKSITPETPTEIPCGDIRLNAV
IC50 ([1]; Table 1),IC50 ([2]; Table 1),SMILES,"IC50 ([1]; Table 1a, single enantiomers)","IC50 ([2]; Table 1a, single enantiomers)"
> 300 nM,0.01 to 100 nM,Cc1ccc2c(C)cc(COCC3(c4ccccc4)CCNCC3)nc2c1 [Example 20],,
,,"CC(OCC1(c2ccccc2)CCN(C)CC1)c1cc(C(F)(F)F)cc2cccnc12 (single isomer, unassigned) [Example 73]",0.01 to 100 nM,0.01 to 100 nM
0.01 to 100 nM,0.01 to 100 nM,Cc1cc(C(C)OCC2(c3ccc(F)cc3)CCNCC2)c2ncccc2c1 (stereo not drawn) [Example 39],,
> 300 nM,0.01 to 100 nM,Nc1cc(COCC2(c3ccccc3)CCNCC2)nc2ccccc12 [Example 7],,

SMILES,IC50 ([1]; Table 1),IC50 ([2]; Table 1),"IC50 ([1]; Table 1a, single enantiomers)","IC50 ([2]; Table 1a, single enantiomers)"
Cc1ccc2cc(COCC3(c4ccccc4)CCN(C)CC3)ccc2n1 [Example 10],> 300 nM,0.01 to 100 nM,,
CC(OCC1(c2ccc(F)cc2)CCN(C)CC1)c1cc(C(F)(F)F)cc2cccnc12 (stereo not drawn) [Example 34],0.01 to 100 nM,0.01 to 100 nM,,

# Reference: patent US20090018163A1, “Substituted Heterocyclic Ethers and Their Use in CNS Disorders” (Bristol-Myers Squibb Company, priority 2007, published 2009)
